Laboratory results taken from patent publication US20260373138A1, “COMPOUNDS WITH ANTIFUNGAL PROPERTIES” (priority 2023, published 2026).

Test system: A. fumigatus CEA10 reference strain
Experiment: Fluconazole potentiator screen: MIC by CLSI microbroth dilution with and without fluconazole
Type: cell-based, Aspergillus fumigatus
Details: for MIC: Aspergillus fumigatus, read-out: MIC (ug/mL) (−) Fluc; for MIC / MIC (ug/mL) (+) Fluc: 18 h; for MIC (ug/mL) (+) Fluc: with 32 μg/ml fluconazole, normoxia, GMM, 37 °C; for potency / potentiation of fluconazole (in words): structure-activity statements, fluconazole potentiator screen; for loss in potentiating the fluconazole: analogs of MBX-7591

| SMILES | MIC [µg/mL] | MIC (ug/mL) (+) Fluc [µg/mL] | potency / potentiation of fluconazole (in words) | loss in potency compared to MBX-7591 (relative to MBX-7591) [fold] | loss in potentiating the fluconazole |
| --- | --- | --- | --- | --- | --- |
| O=C(c1ccsc1)N1CCC(Oc2ccc(COc3ccncc3)cc2)CC1 [MBX-8309] | 19 | 19.00 | – | – | – |
| O=C(c1ccsc1)N1CC2(CC(CCOc3ccncc3)C2)C1 [MBX-8285] | 4.11 | 2.05 | – | – | – |
| NCc1ccc(OCc2ccc(CC3CCN(C(=O)c4ccsc4)CC3)cc2)cc1 [MBX-8220] | > 21 | >21 | – | – | – |
| O=S(=O)(c1cccc(Cl)c1)N1CCC2(CC1)CC(CCOc1ccncc1)CCO2 (stereo not shown) [MBX-7872] | > 18 | 6.38 | – | – | – |
| O=S(=O)(c1cccs1)N1CCC2(CC1)C[C@@H](CCOc1ccncc1)CCO2 [MBX-8251] | 5.28 | 1.32 | – | – | – |
| O=S(=O)(c1ccc(F)cc1)N1CCC(Oc2ccc(CN3CCOCC3)cc2)CC1 [MBX-8282] | 5.43 | 1.36 | – | – | – |
| CC(C)(C)c1ccc(C(=O)N2CCC(Cc3ccc(COc4ccncc4)cc3)CC2)cc1 [MBX-8094] | > 22 | >22 | – | – | – |
| O=S(=O)(c1ccc(C(F)(F)F)nc1)N1CCC2(CC1)CC(CCOc1ccncc1)CCO2 (stereo not shown) [MBX-7913] | 2.41 | 0.96 | the most potent | – | – |
| Cc1ccc(C(=O)N2CCC(Cc3ccc(COc4ccncc4)cc3)CC2)cc1 [MBX-7707] | 1.18 | 0.59 | comparable activity to MBX-7591 | – | – |
| O=C1c2ccsc2CCN1Cc1ccc(CCOc2ccncc2)cc1 [MBX-8354] | 9 | 14.00 | – | – | – |
| O=C(c1ccsc1)N1CCC(Cc2ccc(CO)cc2)CC1 [MBX-8192] | > 15.8 | >15.8 | – | – | – |
| O=C(c1ccc(O)cc1)N1CCC(Cc2ccc(COc3ccncc3)cc2)CC1 [MBX-7802] | > 16 | >16 | – | – | – |
| O=S(=O)(c1ccc(C(F)(F)F)cc1)N1CCC(Cc2ccc(CN3CCOCC3)cc2)CC1 [MBX-8224] | 1.1 | 0.50 | – | – | – |
| c1cc(OCc2ccc(CC3CCN(Cc4ccsc4)CC3)cc2)ccn1 [MBX-7806] | > 15 | >15 | – | – | – |
| O=S(=O)(C1CC1)N1CCC2(CC1)CC(CCOc1ccncc1)CCO2 (stereo not shown) [MBX-7911] | 76.1 | 38.10 | complete loss of activity | – | – |
| O=S(=O)(c1ccc(F)cc1)N1CCC(Cc2ccc(CN3CCOCC3)cc2F)CC1 [MBX-8324] | 1.2 | 0.17 | – | – | – |
| O=C(Nc1ccsc1)N1CCC(Cc2ccc(COc3ccncc3)cc2)CC1 [MBX-7805] | > 16 | >16 | – | – | – |
| O=C(c1ccsc1)N1CCC(Cc2ccc(-c3ccncc3)cc2)CC1 [MBX-7964] | 2.27 | 1.13 | maintained potency | – | – |
| O=C(c1ccoc1)N1CCC(Cc2ccc(COc3ccncc3)cc2)CC1 [MBX-7732] | 5.32 | 1.88 | – | 4 | – |
| O=S(=O)(c1ccc(F)cc1)N1CCC2(CC1)CC(CCOc1ccncc1)CCO2 (stereo not shown) [MBX-7871] | 8.69 | 1.09 | – | – | – |

| SMILES | MIC [µg/mL] | MIC (ug/mL) (+) Fluc [µg/mL] | potency / potentiation of fluconazole (in words) | loss in potency compared to MBX-7591 (relative to MBX-7591) [fold] | loss in potentiating the fluconazole |
| --- | --- | --- | --- | --- | --- |
| O=S(=O)(c1ccc(F)cc1)N1CCC(Cc2ccc(CC3CCOCC3)cc2)CC1 [MBX-8347] | > 21 | >21 | – | – | – |
| O=C(c1ccc(Cl)s1)N1CCC(Cc2ccc(COc3ccncc3)cc2)CC1 [MBX-8095] | 6.7 | 3.80 | – | – | more than 4 fold |
| O=S(=O)(c1ccc(Cl)s1)N1CCC(Cc2ccc(CN3CCOCC3)cc2)CC1 [MBX-8193] | 0.63 | 0.18 | – | – | – |
| O=C(c1ccsc1)N1CCC(Cc2ccc(CN3CCOCC3)cc2)C1 (stereo not shown) [MBX-8429] | 18.5 | 18.53 | – | – | – |
| O=C(c1ccsc1)N1CCC(Cc2ccc(CNc3ccncc3)cc2)CC1 [MBX-8085] | > 19 | >19 | – | – | – |
| c1csc(CN2CCC3(CC2)CC(CCOc2ccncc2)CCO3)c1 (stereo not shown) [MBX-7955] | > 74 | >74 | – | – | – |
| O=C(c1ccc2scnc2c1)N1CCC(Cc2ccc(COc3ccncc3)cc2)CC1 [MBX-8097] | > 22 | >22 | – | – | – |
| Cc1cc(OCc2ccc(CC3CCN(C(=O)c4ccsc4)CC3)cc2)ccn1 [MBX-8141] | > 20 | >20 | complete loss of activity | – | – |
| O=S(=O)(c1ccsc1)N1CC2(CN(CCOc3ccncc3)C2)C1 [MBX-8241] | > 18 | >18 | – | – | – |
| Cc1cc(CN2CCOCC2)ccc1CC1CCN(S(=O)(=O)c2ccc(F)cc2)CC1 [MBX-8346] | 1.1 | 0.15 | – | – | – |
| O=C(c1c[nH]cn1)N1CCC(Cc2ccc(COc3ccncc3)cc2)CC1 [MBX-7804] | > 15 | >15 | not tolerated | – | – |
| CN1CCN(c2ccc(CC3CCN(S(=O)(=O)c4ccc(F)cc4)CC3)cc2)CC1 [MBX-8701] | 0.67 | 0.19 | – | – | – |
| O=S(=O)(c1cccs1)N1CCC2(CC1)CC(CCO)CCO2 (stereo not shown) [MBX-8248] | > 17 | >17 | – | – | – |
| O=C(c1cccc(Cl)c1)N1CCC(Cc2ccc(COc3ccncc3)cc2)CC1 [MBX-8092] | 21 | >21 | – | – | – |
| O=C(c1ccc(C(F)(F)F)nc1)N1CCC(Cc2ccc(CN3CCOCC3)cc2)C1 (stereo not shown) [MBX-8392] | > 43 | >43 | – | – | – |
| Cc1cnccc1OCc1ccc(CC2CCN(C(=O)c3ccsc3)CC2)cc1 [MBX-8140] | > 20 | >20 | complete loss of activity | – | – |
| O=S(=O)(c1cccc(Cl)c1)N1CCC(Cc2ccc(CN3CCOCC3)cc2)CC1 [MBX-8187] | 4.45 | 2.50 | – | – | – |
| O=C(c1ccncc1)N1CCC(Cc2ccc(COc3ccncc3)cc2)CC1 [MBX-7731] | 7.7 | 7.70 | did not result in appreciable increase in potency | – | – |
| O=S(=O)(c1cccs1)N1CCC2(CC1)C[C@H](CCOc1ccncc1)CCO2 [MBX-8250] | 2.64 | 0.52 | – | – | – |
| O=C(N1CCC(Cc2ccc(COc3ccncc3)cc2)CC1)C12CC(C1)C2 [MBX-8090] | 18.8 | 13.30 | – | – | – |

| SMILES | MIC [µg/mL] | MIC (ug/mL) (+) Fluc [µg/mL] | potency / potentiation of fluconazole (in words) | loss in potency compared to MBX-7591 (relative to MBX-7591) [fold] | loss in potentiating the fluconazole |
| --- | --- | --- | --- | --- | --- |
| O=S(=O)(c1ccccc1F)N1CCC2(CC1)CC(CCOc1ccncc1)CCO2 (stereo not shown) [MBX-7869] | > 17 | 3.07 | – | – | – |
| O=S(=O)(c1ccsc1)N1CCC(Cc2ccc(COc3ccncc3)cc2)CC1 [MBX-7822] | > 6 | 1.07 | the only linker reasonably tolerated, apart from the amide | – | – |
| O=C(c1ccc(C(F)(F)F)nc1)N1CCC(Cc2ccc(COc3ccncc3)cc2)CC1 [MBX-8089] | > 22 | >20 | did not result in appreciable increase in potency | – | – |
| O=S(=O)(c1ccc(F)cc1)N1CCC(Cc2ccc(CN3CCOCC3)cc2)C1 (stereo not shown) [MBX-8390] | 2 | 0.40 | – | – | – |
| N#Cc1ccc(OCc2ccc(CC3CCN(C(=O)c4ccsc4)CC3)cc2)cc1 [MBX-8027] | > 83 | >83 | – | – | – |
| O=C(c1cscn1)N1CCC(Cc2ccc(COc3ccncc3)cc2)CC1 [MBX-8099] | 7.81 | 3.10 | – | – | more than 4 fold |
| O=C(c1cccc(F)c1O)N1CCC(Cc2ccc(COc3ccncc3)cc2)CC1 [MBX-7803] | > 16 | >16 | – | – | – |
| O=C(c1ccsc1)N1CCC(Cc2ccc(CCc3ccncc3)cc2)CC1 [MBX-8026] | 2.4 | 0.80 | maintained potency | – | – |
| O=C(c1ccsc1)N1CCN(Cc2ccc(-c3ccncc3)cc2)CC1 [MBX-8702] | 1.14 | 0.32 | – | – | – |
| CCc1ccc(C(=O)N2CCC(Cc3ccc(COc4ccncc4)cc3)CC2)cc1 [MBX-8087] | 13 | >18 | – | – | – |
| O=S(=O)(c1cccnc1)N1CCC2(CC1)CC(CCOc1ccncc1)CCO2 (stereo not shown) [MBX-7874] | > 16 | >16 | – | – | – |
| CC1CC(Cc2ccc(CN3CCOCC3)cc2)CCN1S(=O)(=O)c1cccc(F)c1 (stereo not shown) [MBX-8281] | 7.03 | 1.40 | – | – | – |
| O=S(=O)(C1COC1)N1CCC2(CC1)CC(CCOc1ccncc1)CCO2 (stereo not shown) [MBX-7956] | > 79 | >79 | complete loss of activity | – | – |
| COC(=O)c1ccc(C(=O)N2CCC(Cc3ccc(COc4ccncc4)cc3)CC2)cc1 [MBX-8093] | > 22 | >20 | – | – | – |
| O=C(c1cccs1)N1CCC2(CC1)CC(CCOc1ccncc1)CCO2 (stereo not shown) [MBX-8394] | 19 | 9.70 | – | – | – |
| O=C(c1ccsc1)N1CCC(Cc2ccc(CCOc3ccncc3)cc2)CC1 [MBX-8028] | 0.4 | 0.60 | – | – | – |
| O=S(=O)(c1ccc(F)cc1)N1CC2(CC(Cc3ccc(CN4CCOCC4)cc3)C2)C1 [MBX-8345] | > 22 | 11.00 | – | – | – |
| O=S(=O)(c1ccccc1)N1CCC2(CC1)CC(CCOc1ccncc1)CCO2 (stereo not shown) [MBX-7868] | 8.33 | 2.08 | – | – | – |
| Cc1ccc(S(=O)(=O)N2CCC3(CC2)CC(CCOc2ccncc2)CCO3)s1 (stereo not shown) [MBX-8144] | 0.77 | 0.21 | – | – | – |
| O=C(c1ccsc1)N1CCC(Cc2ccc(Oc3ccncc3)cc2)CC1 [MBX-8025] | > 37 | >37 | not optimal for potentiation of fluconazole | – | – |
